Read-outs that look alike come from different tables or passages of the source.
How the values were obtained:
[1] = biological target: T1, Purified human AGT with a (His)6 tag (Homo sapiens, UniProt P16455); assay: In vitro binding of radiolabeled FBG or IBG to purified AGT (TCA precipitation); settings: for maximum observed AGT to BSA binding ratio: 10 μg AGT vs 10 μg BSA (nonspecific protein); for unlabeled compound concentration above which saturation was observed: binding to purified AGT
T1 construct: (His)6
T1 sequence (P16455 1-207): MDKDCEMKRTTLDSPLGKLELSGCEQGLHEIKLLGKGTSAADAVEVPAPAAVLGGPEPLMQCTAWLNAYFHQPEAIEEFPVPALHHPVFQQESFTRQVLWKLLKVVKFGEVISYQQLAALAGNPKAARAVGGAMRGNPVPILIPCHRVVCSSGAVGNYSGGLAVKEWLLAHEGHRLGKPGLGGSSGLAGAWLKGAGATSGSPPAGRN
Procedure: FIG. 9 is a graph showing binding of [^18F] FBG to purified AGT as a function of unlabeled FBG concentration. […] FBG was incubated for 30 minutes at 37° C., in the presence or absence of increasing amounts of unlabeled FBG, with 10 μg of AGT ([…]), or to control for nonspecific binding, 10 μg of BSA (▴) in a Tris-buffer. The protein-associated activity was determined by TCA precipitation.
IBG to purified AGT as a function of unlabeled IBG concentration. […] IBG with AGT ([…]) or BSA (▴).
Purified human AGT with a (His)6 tag was generously provided by Dr. Anthony E. Pegg of Hershey Medical Center, Pennsylvania State University. […] The incubation carried out in 0.1 ml 50 mM Tris-Cl, pH 7.5, 5 mM DTT, 0.1 mM EDTA in the presence of 10 μg calf thymus DNA. […] The precipitated proteins were collected on GF-C (Whatman) filters, which were washed extensively with 5% TCA. The results are expressed as the percentage of input activity retained on the filter. For each concentration, the assay was performed in triplicate.
To investigate whether AGT recognizes radiolabeled FBG and IBG as substrates, the efficacy of transfer of their radiolabeled benzyl groups to AGT was determined using the purified protein. […] The preparation of ^13C-and ^14C-labeled O^6-benzylguanosines has been reported by, e.g., Madelmont et al., J. Lab. Comp.

human AGT = biological target: T2, human AGT (Homo sapiens, UniProt P16455); assay: Depletion (inactivation) of cellular AGT activity in CHO cells transfected with pCMV-AGT; format: cell-based
T2 construct: expressed in transfected cells; host or cells: CHO-K1 cells, geneticin-selected clones, plasmid pCMV-AGT
T2 sequence (P16455 1-207): T1 sequence (P16455 1-207)
Procedure: FIG. 8 is a graph showing depletion of cellular AGT activity by unlabeled 6-(4-fluoro-benzyloxy)-9H-purin-2-ylamine (O^6-4-fluorobenzylguanine (FBG)) and 6-(iodo-benzyloxy)-9H-purin-2-ylamine (O^6-iodobenzylguanine (IBG)). CHO cells transfected with pCMV-AGT were incubated with varying concentrations of IBG (▪) or FBG ([…]) for 4 hours, and the AGT activity associated with the cells was determined. The results are expressed as the percentage of the AGT activity present in cell cultures that were not treated with FBG or IBG.
CHO-K1 cells were maintained in αMEM (Gibco, Grand Island, N.Y.) containing 10% fetal bovine serum. […]
Inactivation of cellular AGT was measured by adding varying concentrations of FBG or IBG to cell cultures that had reached 80-90% confluence. […] AGT activity was measured by assaying the loss of [^3H]—O^6-methylguanine from a [^3H] methylated calf thymus DNA substrate as described by, e.g., Dolan et al., PNAS, 87:5368-5372 (1990). The results are expressed as the percentage of the AGT activity present in cell cultures that were not treated with FBG or IBG. […]
Because IBG is a new compound, its ability to deplete AGT was determined using CHO cells transfected with pCMV-AGT to express AGT. In parallel, the ability of FBG to deplete AGT under the same conditions also was measured. […]

[2] = Stability during reversed-phase chromatography with 0.1% TFA in water; format: physicochemical; settings: 0.1% TFA in water (pH 2) as a co-solvent
Excerpt: A combination of radio-TLC, and normal-phase and reversed-phase HPLC was used to verify that the final product was indeed IBG and not the 3-iodobenzyl alcohol. Very little if any of 3-iodobenzyl alcohol was detected in the reaction mixture. In addition, the final product bound to AGT specifically (vide infra), which further supports its authenticity. […] This may be due to the lack of water in the reaction mixture or a rate factor may be involved. Both IBG and FBG were stable during reversed-phase chromatography involving 0.1% TFA in water (pH 2) as a co-solvent.

## Nc1nc(OCc2cccc([131I])c2)c2nc[nH]c2n1 [[^131I]IBG, 6-(3-[^131I]Iodo-benzyloxy)-9H-purin-2-ylamine]
[1]
  maximum observed AGT to BSA binding ratio: 35
  unlabeled compound concentration above which saturation was observed: higher than 3 μM
[1]; over a wide range of unlabeled IBG concentrations, 10 μg AGT, 30 minutes at 37° C.
  percent of radiolabeled compound bound to AGT: About 60%

## Nc1nc(OCc2ccc(F)cc2)c2nc[nH]c2n1 [FBG, 6-(4-fluoro-benzyloxy)-9H-purin-2-ylamine, reference compound]
Human AGT; CHO cells transfected with pCMV-AGT, 4 hours of drug treatment, read-out: IC50 for depleting AGT
  IC50: 0.05 µM
[1]; 10 μg AGT, 30 minutes at 37° C., read-out: IC50 (binding to purified AGT as a function of unlabeled compound concentration)
  IC50: 5 µM
[2]
  stability during reversed-phase chromatography: stable

## Nc1nc(OCc2ccc([18F])cc2)c2nc[nH]c2n1 [[^18F]FBG, 6-(4-[^18F]Fluoro-benzyloxy)-9H-purin-2-ylamine]
[1]
  maximum observed AGT to BSA binding ratio: 661
  unlabeled compound concentration above which saturation was observed: higher than 2 μM
[1]; at 0.5 μM of unlabeled FBG, 10 μg AGT, 30 minutes at 37° C.
  percent of input activity that bound to AGT, maximum: about 90%

## Nc1nc(OCc2cccc(I)c2)c2[nH]cnc2n1 [IBG, 6-(3-Iodo-benzyloxy)-9H-purin-2-ylamine]
Human AGT
  IC50: 0.015 µM
[1]
  IC50: ~6 µM
[2]
  stability during reversed-phase chromatography: stable

Reference: US20120270812A1, “COMPOSITIONS, METHODS, AND KITS FOR DETERMINING AN ALKYL TRANSFERASE” (Duke University, priority 2009, published 2012)
